According to US20210145830A1, “MATERIALS AND METHODS FOR TREATING CANCER” (Mayo Foundation for Medical Education and Research, priority 2018, published 2021):
Entries after “also recorded” stand apart in the source; their conditions may differ.

Assays:
Assay type in all cases: cell-based
[1] = tested on: CART19; test: CART19 proliferation assay in the presence of TP0903; details: 5 days
Protocol: FIG. 2 contains an exemplary timeline for a CART19 proliferation assay in the presence of TP0903. UTDs or CART19 were incubated with Jeko in the presence of TP0903 in 1:1 ratio. At day 5, total T cell numbers were evaluated with CountBright quantification.
T cells were washed and re-suspended at 1×10^7/mL in 100 μL of phosphate-buffered saline and labeled with 100 μL of carboxyfluorescein succinimidyl ester (CFSE) 2.5 μM (Life Technologies) for 5 minutes at 37° C. The reaction was then quenched with cold R10, and the cells were washed three times. Targets were irradiated at a dose of 100 Gy. T cells were incubated at a 1:1 ratio with irradiated target cells for 120 hours. Cells were then harvested, stained for CD3, CAR and Live Dead aqua (Invitrogen), and Countbright beads (Invitrogen) were added prior to flow cytometric analysis.
UTDs or CART19 were incubated with Jeko cell line or primary CLL cells in the presence of TP0903, at 1:1 ratio for 5 days. At the end of the experiment, cells were harvested and stained for CD3, live dead staining was performed, and counti bright beads were added prior to flow cytometric analyses (FIG. 2). Absolute T cell numbers were calculated based on this. […] Low doses of TP0903 (10 nM) increased the number of CART19 cells. A high dose of TP0903 (>100 nM) decreased the number of CART19.

[2] = tested on: CART19 cells; test: RNA-seq of TP0903 treated vs non-treated CART19 cells
Protocol: FIG. 24A-B. A. Western blot analysis of p-LCK inhibition by TP0903 in CART19 cells. CART19 cells were incubated with lethally irradiated JeKo-1 in the presence of TP0903 at a 1 to 3 ratio for 24 hours. After the incubation, CART19 cells were purified with anti-CD19 micro beads. […] B. Comparison of gene expression between TP0903 treated CART19 cells and non-treated CART19 cells subpopulations using RNA-seq. CART19 cells from three biological replicates were thawed and stimulated with irradiated JeKo-1 (120 Gy) for 5 days. Each sample was treated with either 30 nM TP0903 (treated condition) or DMSO (untreated condition). Representative flow cytometric analysis of CART19 cells before RNA isolation (right). RNA-seq was performed on an Illumina […] by the Genomic Sequencing Core at Mayo Clinic.
FIG. 28A-E. A, Western blot analysis of p-LCK inhibition by TP-0903 in CART19 cells. CART19 cells were incubated with lethally irradiated JeKo-1 in the presence of TP0903 at a 1 to 3 ratio for 24 hours. After the incubation, CART19 cells were purified with anti-CD19 micro beads. B, Representative flow cytometric analysis of CART19 cells before RNA isolation. Principal component analysis (PCA) from RNA-seq analysis of untreated cells and cells treated with 30 nM of TP-0903. […]

[3] = tested on: luciferase-positive Jeko; test: CART19 cytotoxicity in the presence of TP0903
Protocol: FIG. 1 contains a graph showing CART19 cytotoxicity in the presence TP0903. CART19 or untransduced T cells (UTDs) were co-cultured at different effector-to-target ratios (E:T) with luciferase-positive Jeko with increasing doses of TP0903 (TP). At 24 hours, cell killing was assessed by luminescence.
FIGS. 16A-B. A head-to-head comparison of two different combination therapy. UTDs (A) or CART19 (B) were co-cultured at different effector-to-target ratios (E:T) with luciferase-positive CD19^+ cell line in the presence of DMSO, 30 nM TP0903, or 100 nM ibrutinib. Cell killing was assessed by luminescence at 24 hours.
FIG. 22A-C. In vitro experiment for the combination of CART19 and TP0903. A. CART19 were cocultured at different effector-to-target ratio (E:T) with luciferase-positive JeKo-1. At 48 hours, cell killing was assessed by luminescence. […] The means and SEM are shown (**, p<0.005, *, p<0.05, one-way ANOVA analysis). n.s., not statistically significant. B. CART19 degranulation assay and cytokine production in the presence of TP0903. CART19 were cocultured with JeKo-1 for 4 hours in the presence of TP0903 doses of TP0903 (10-65 nM). […] C. Th2/Th1 T cell subtype analysis during CART19 expansion in the presence pf TP0903. CART19 cells were stimulated with lethally irradiated (120 Gy) JeKo-1 cell lines in the presence of increasing doses of TP0903 (10-30 nM). At the day 3, Th1 and Th2 cells were defined using CD4, CCR6, CCR4 and CXCR3 expression. […] The means and SEM are shown (*, p<0.05, one-way ANOVA analysis). n.s., not statistically significant.
JEKO-Luc cells or primary B cells were used for cytotoxicity assay. In brief, targets were incubated at the indicated ratios with effector T cells for 4 or 16 hours. Killing was calculated either by bioluminescence imaging on a Xenogen IVIS-200 Spectrum camera (PerkinElmer, Hopkinton, Mass., USA) or by flow cytometry. For the latter, cells were harvested; Countbright beads and life/dead (Invitrogen) were added prior to analysis. Residual live target cells were CD19+L/D−.
CART19 or UTDs were cocultured at different effector-to-target ratio (E:T) with luciferase-positive Jeko or with primary CLL cells, with increasing dose of TP0903 as indicated on the X axis. At 24 hours, cell killing was assessed by luminescence or by flow cytometry.

CN1CCN(Cc2ccc(Nc3ncc(Cl)c(Nc4ccccc4S(=O)(=O)N(C)C)n3)cc2)CC1 [TP0903]
CART cell specific proliferation ([1]; 1:1 with Jeko or primary CLL cells): did not impair; also recorded: does not inhibit
number of CART19 cells ([1]; high dose of TP0903 (>100 nM)): decreased
number of CART19 cells ([1]; low doses of TP0903 (10 nM)): increased
immune synapse related genes (cell junction, cell migration) ([2]; activated CART cells treated with TP0903): significantly increased
differentially expressed genes in transcriptome vs non-treated cells ([2]; activated CART cells treated with TP0903 (30 nM)): More than 100 genes
cell killing, head-to-head comparison of combinations ([3]; 30 nM TP0903 + CART19 vs 100 nM ibrutinib + CART19, luciferase-positive CD19+ cell line, 24 hours): more synergistic killing
type of combination effect on cell killing ([3]; CART19 + TP0903, from calculations): synergistic rather than an additive effect
cell killing assessed by luminescence ([3]; CART19 + increasing doses of TP0903, different E:T ratios, luciferase-positive Jeko or primary CLL cells, 24 hours): robust killing at all E:T ratios
cytotoxic effect versus TP0903 dose ([3]; CART19 with luciferase-positive JeKo-1, 48 hours, at a specific E:T ratio): increased cytotoxic effect was significantly correlated to increased TP0903 dose
antitumor activity against JeKo in vitro ([3]; combination of CART19 cells and TP0903, low E:T ratios): synergistic antitumor activity
